Reference: patent US6248309A, “Gums containing antimicrobial agents” (priority 1999, dated 2001)
Several values for one entry are separate records, joined by “and”; a condition that tells them apart may be missing. Equal entries are not always repeated. Where two headings read alike, the source gives them in different places.

Columns and labels:
[1] = test system: Actinomyces viscosus (AV); assay: MIC of agents alone, in pairs and in three-agent combination (Example 2); format: cell-based, Actinomyces viscosus ATCC 19246; settings: AV, agent used alone
Source text: (§1) In addition, the example describes how the MIC of antimicrobial agents in the combinations are reduced compared to the MIC of those antimicrobial agents alone and the MIC of those agents in various pairings. Numerous combinations of the antimicrobial agents described herein were combined to form combinations comprising three antimicrobial agents or triplets. Each of the formed triplets included either cedarwood oil or berberine hydrochloride.
(§2) The protocol used was a variation of the procedure described above in Example 1. The assay was carried out in the two-dimensional array of a 96-well plate. In order to evaluate three agents, two of the agents were paired against the third agent. For example, varying concentrations of antimicrobial agent A plus antimicrobial agent B versus varying concentrations of antimicrobial agent C were evaluated on one 96-well plate. The procedure was repeated with the other two possible pairings, i.e., A+C with B, and B+C with A. Accordingly, each triplet required three assays in order to assess each of the three possible pairings.
(§3) The bacterial innoculum was prepared as described in Example 1.
(§4) A sterile polystyrene 96-well plate was used to dilute the antimicrobial agents A, B and C. Using aseptic technique, 100 microliters of distilled water was placed in each test well. The dilution scheme was separated into two parts. First, the dilution of the combined agents A and B and then second, the dilution of agent C. A dilution of agents A and B was accomplished by placing 50 microliters of stock solution for agent A in the first well of each column. Next, 50 microliters of stock solution for agent B was added to each of the first wells of each column. Accordingly, the first well of each column included 50 microliters of stock solution for agent A and 50 microliters of stock solution for agent B. 100 microliters from the first row in each column was then transferred to the next well in the column and so on down the column. Each transfer was a one-half dilution of the preceding concentration.
(§5) The dilution of antimicrobial agent C was accomplished by adding 100 microliters of agent C stock solution to the first well of each row. 100 microliters from the first well in each row was then transferred to the next well and so on across the row of test wells. Each transfer was a one-half dilution of the preceding concentration. FIG. 1 is a schematic illustration of the concentrations of antimicrobial agents A, B and C derived from the dilution scheme described above. […] The concentration of agent C decreases across a row from left to right. […]
(§6) The 96-well plate was then incubated under conditions that varied by microorganism. […] The plate was then read for microbial growth with a spectrophotometer by optical density. […]

[2] = test system: Fusobacterium nucleatum (FN); assay: as above; format: cell-based, Fusobacterium nucleatum ATCC 10933; settings: FN, agent used alone
Source text: as §1, §2, §3, §4, §5, §6

[3] = test system: Porphyromonas gingivalis (PG); assay: as above; format: cell-based, Porphyromonas gingivalis ATCC 33277; settings: PG, agent used alone
Source text: as §1, §2, §3, §4, §5, §6

[4] = test system: Streptococcus mutans (SM); assay: as above; format: cell-based, Streptococcus mutans ATCC 25175; settings: SM, agent used alone
Source text: as §1, §2, §3, §4, §5, §6

[5] = test system: Streptococcus sanguis (SS); assay: as above; format: cell-based, Streptococcus sanguis ATCC 49295; settings: SS; agent used alone
Source text: as §1, §2, §3
A sterile polystyrene 96-well plate was used to dilute the antimicrobial agents A, B and C. Using aseptic technique, 100 microliters of distilled water was placed in each test well. The dilution scheme was separated into two parts. First, the dilution of the combined agents A and B and then second, the dilution of agent C. A dilution of agents A and B was accomplished by placing 50 microliters of stock solution for agent A in the first well of each column. Next, 50 microliters of stock solution for agent B was added to each of the first wells of each column. […]
as §6

[6] = test system: Campylobacter rectus (CR); assay: as above; format: cell-based; settings: CR, agent used alone, read-out: MIC, individual agent alone
Source text: as §1, §2, §3
A sterile polystyrene 96-well plate was used to dilute the antimicrobial agents A, B and C. […]
as §6

[7] = format: in vivo, human volunteers; settings: in vivo
Protocol: The saliva samples were refrigerated until analysis.
To either 2.7 grams unchewed gum sample or the remaining bolus of chewed gum, was added 3.0 millileters of internal standard (Hesperetin) in methanol, 6.0 milliliters hexane and 3.0 milliliters distilled water. Samples were homogenized using a Polytron Homogenizer model PT10/35 from Brinkmann Instruments, fitted with a PTA10TS generator for at least 30 seconds on ice, or until no lumps of non-dispersed gum were visible in the sample. Samples were then centrifuged in a Dynac Tabletop Centrifuge at top speed for ten minutes. The lower, amber, aqueous/methanol layer were then filtered through 25 millimeter, 0.45 micrometer nylon Acrodisc syringe filters from Gelman into 4 milliliter autosampler vials and tightly capped with polytetrafluorothylene lined septum in open-top screw caps. These samples were then analyzed using high pressure liquid chromatography for glabridin and/or glycyrrhizic and 18β-glycyrrhetinic acid, and were quantitated against a 4-point linear curve prepared by spiking approximately 2.7 grams unchewed samples of Wrigley Extra Sugarfree Peppermint gum with known levels of purified glabridin, glycyrrhizic acid monoammonium salt and 18β-glycyrrhetinicacid.
For the analysis of the gum bolus, both chewed and unchewed, a Polytron Homogenizer, described above was used. The gum sample was placed in a heavy wall glass tube. Internal standard ([…]) ethyl acetate ([…]) and water ([…]) were added. The sample was homogenized for approximately 30 seconds, or until no particles could be seen. The tubes were then centrifuged for 10 minutes on a clinical centrifuge at maximum speed. The supernatant was injected directly onto the gas chromatograph. The oven program was modified to allow resolution of ROF1 components from those of the peppermint flavoring. The gas chromatograph was calibrated using a three point standard curve to quantify the following components: menthol (flavor); geraniol (oil geraniol); cedrene, thujopsene (RC1); pinene, cineol, camphor, bornyl acetate (ROF1). The initial temperature was decreased from 140° C. to 100° C. The temperature gradient was changed from 10° C./minute to 4° C./minute. The split ratio was 50:1, and injection volume was 1 μL as per the method. A cleanup gradient was run every fifth sample as described previously.
A recovery study was performed in triplicate using blank Wrigley's Peppermint Gum (chewed and unchewed) spiked with stand and solution. Recovery was calculated relative to a direct standard consisting of spike solution without sample matrix.

Porphyromonas gingivalis = assay: MIC of each agent used in Example 5; format: cell-based; settings: starting dilution 0.1 percent in methanol, MIC defined in micrograms per milliliter, read-out: MIC relative to Porphyromonas gingivalis used in Example 5
Protocol: The MIC Range was determined against a standard panel of five organisms that included Actinomyces viscosus, Fusobacterium nucleatum, Porphyromonas gingivalis, Streptococcus mutans, and Stretococcus sanguis. The starting dilution was 0.1 percent in methanol. The MIC used in this Example 5 was the MIC for each agent relative to Porphyromonas gingivalis.

[8] = for Rate of release from gum: in words
Protocol: (§7) Ten volunteers chewed 2.7 grams samples of each gum formulation and provided saliva samples at intervals and the gum bolus at the end of the 25 minute chewing period. High pressure liquid chromatography and gas chromatography were used to analyze the gum bolus and saliva non-volatile and volatile components, respectively.
(§8) Saliva samples were collected from each of the individuals prior to chewing 2.7 grams of gum, and at 1.0, 2.5, 5.0, 10.0, and 25.0 minutes while chewing the gum. The saliva samples were refrigerated until analysis. The gum bolus that remained after 25 minutes was saved and extracted immediately or stored refrigerated until extraction for analysis.
(§9) Samples were Vortex-mixed in Multi-tube vortex mixer for one minute and then centrifuged at top speed in clinical centrifuge for two minutes. Supernatants were carefully transferred to 1 milliliter glass shell vials and capped. Analysis was carried out either by isocratic elution for glabridin-only samples, or gradient elution for the samples containing the glycyrrhizic and 18β-glycyrrhetinic acids using high pressure liquid chromatography. Glabridin concentrations were converted to GLY concentrations by taking the weight percent glabridin in GLY to be 2.74 percent.
(§10) The calibration curve was prepared using spiked blank saliva.
(§11) For saliva, the essential oils of menthol, cedarwood oil, geraniol and Rosmarinus officianalis were determined by capillary gas chromatography. The split ratio was 25:1. The injection volume was 2 μL. Four hundred μL of saliva was extracted from the 1 milliliter of ethyl acetate containing an internal standard (hexadecane) in 1.5 milliliter Eppendorf tubes. After centrifugation, the organic layer was injected directly into the Hewlett-Packard 6890 gas chromatograph. […] For this reason, only the samples from 0 to 10 minutes were analyzed. A cleanup gradient was run from 190 to 300° C. every fifth sample to remove less volatile interferences from the column.

clinical = settings: human, in vivo
Protocol: as §7, §8, §9, §10, §11

MIC, individual agent alone [1]: 62.5 µg/mL and 125 µg/mL
MIC ([1]; Actinomyces viscosus, read-out: MIC, individual agent alone): 125 µg/mL
MIC, individual agent alone [2]: 62.5 µg/mL and 125 µg/mL
MIC ([2]; Fusobacterium nucleatum, read-out: MIC, individual agent alone): 62.5 µg/mL
MIC, individual agent alone [3]: 62.5 µg/mL
MIC ([3]; Porphyromonas gingivalis, read-out: MIC, individual agent alone): 62.5 µg/mL
MIC, individual agent alone [4]: 125 µg/mL
MIC ([4]; Streptococcus mutans, read-out: MIC, individual agent alone): 125 µg/mL
MIC, individual agent alone [5]: 125 µg/mL and 62.5 µg/mL and 250 µg/mL
MIC [6]: 250 µg/mL
Release from Chewed Gum Bolus after 25 min [7]: 34%
MIC (Porphyromonas gingivalis): 7.8 µg/mL
Above MIC in Saliva (Y/N) ([8]; concentration in saliva at any time above MIC relative to Porphyromonas gingivalis): No
Time maintaining a presence in the oral cavity ([8]; human, in vivo): about 25 minutes
concentration at 1 min (clinical): 6000 ng/mL
concentration at 2.5 min (clinical): 6000 ng/mL
concentration at 5 min (clinical): 7000 ng/mL
concentration at 10 min (clinical): 5000 ng/mL
SMILES: CC(C)=CCC/C(C)=C/CO [GRA1, trans-3,7-dimethyl-2,6-octadien-1-ol]
Rate of release from gum ([8]; listed as GRA): released more slowly and over a longer period of time
Rate of release from gum ([8]; listed as geraniol): released from a gum base less quickly and over a longer period of time
